Where two headings read alike, the source gives them in different places.
Tests used:
[1] = biological target: T1, human small intestine carboxylesterase (hiCE) (Homo sapiens, UniProt O00748); experiment: biochemical; assay type: biochemical
T1 sequence (O00748 27-559): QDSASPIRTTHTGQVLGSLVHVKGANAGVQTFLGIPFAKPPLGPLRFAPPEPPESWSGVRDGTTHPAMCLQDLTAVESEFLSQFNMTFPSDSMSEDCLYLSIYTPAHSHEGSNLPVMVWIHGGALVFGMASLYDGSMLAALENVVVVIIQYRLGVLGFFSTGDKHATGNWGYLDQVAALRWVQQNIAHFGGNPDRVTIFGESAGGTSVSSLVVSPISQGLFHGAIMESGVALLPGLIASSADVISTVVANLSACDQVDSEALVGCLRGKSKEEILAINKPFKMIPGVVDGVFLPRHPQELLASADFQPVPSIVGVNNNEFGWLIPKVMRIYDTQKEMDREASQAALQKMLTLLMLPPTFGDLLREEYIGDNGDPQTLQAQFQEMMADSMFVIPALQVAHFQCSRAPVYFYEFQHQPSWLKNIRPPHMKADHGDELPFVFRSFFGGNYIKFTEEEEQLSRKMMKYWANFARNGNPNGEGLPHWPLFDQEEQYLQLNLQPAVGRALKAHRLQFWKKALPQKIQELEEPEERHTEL

[2] = biological target: human butyrylcholinesterase (hBuChE) (Homo sapiens, UniProt P06276); experiment: biochemical
Sequence of human butyrylcholinesterase (hBuChE) (P06276 29-602): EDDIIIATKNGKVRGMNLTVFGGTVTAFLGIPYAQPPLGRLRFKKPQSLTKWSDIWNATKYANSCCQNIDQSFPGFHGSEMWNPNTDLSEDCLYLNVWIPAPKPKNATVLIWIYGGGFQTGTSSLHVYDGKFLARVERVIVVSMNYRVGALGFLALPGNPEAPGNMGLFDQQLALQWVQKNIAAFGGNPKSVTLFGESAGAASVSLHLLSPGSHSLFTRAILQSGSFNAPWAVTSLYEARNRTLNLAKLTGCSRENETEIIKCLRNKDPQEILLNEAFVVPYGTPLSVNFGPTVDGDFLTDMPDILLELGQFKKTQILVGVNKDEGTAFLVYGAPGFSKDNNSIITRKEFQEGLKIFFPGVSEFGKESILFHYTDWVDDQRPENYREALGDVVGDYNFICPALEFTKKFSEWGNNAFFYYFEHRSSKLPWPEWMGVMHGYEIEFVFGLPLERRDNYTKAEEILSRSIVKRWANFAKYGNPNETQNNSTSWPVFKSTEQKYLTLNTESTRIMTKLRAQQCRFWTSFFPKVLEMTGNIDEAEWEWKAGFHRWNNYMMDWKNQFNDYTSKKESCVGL

[3] = biological target: T2, human acetylcholinesterase (hAcChE) (Homo sapiens, UniProt P22303); experiment: biochemical; assay type: biochemical
T2 construct: purchased Sigma Biochemicals (St. Louis, Mo.)
T2 sequence (P22303 32-614): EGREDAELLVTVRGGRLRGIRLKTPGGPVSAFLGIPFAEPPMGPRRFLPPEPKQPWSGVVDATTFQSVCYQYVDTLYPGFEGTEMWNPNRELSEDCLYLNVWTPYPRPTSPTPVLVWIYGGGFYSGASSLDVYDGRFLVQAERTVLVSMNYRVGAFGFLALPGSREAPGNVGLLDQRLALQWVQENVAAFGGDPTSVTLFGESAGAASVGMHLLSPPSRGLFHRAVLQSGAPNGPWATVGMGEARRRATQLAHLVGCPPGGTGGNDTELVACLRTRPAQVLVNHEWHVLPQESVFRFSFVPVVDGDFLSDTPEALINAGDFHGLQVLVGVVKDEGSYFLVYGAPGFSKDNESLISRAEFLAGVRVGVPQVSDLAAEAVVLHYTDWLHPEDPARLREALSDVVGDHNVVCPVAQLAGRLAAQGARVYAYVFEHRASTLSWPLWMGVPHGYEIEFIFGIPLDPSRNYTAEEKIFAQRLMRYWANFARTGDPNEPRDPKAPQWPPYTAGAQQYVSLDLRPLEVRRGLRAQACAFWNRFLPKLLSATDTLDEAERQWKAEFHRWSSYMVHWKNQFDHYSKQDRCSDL
Method: Data was transferred to GraphPad Prism software, and Ki values were calculated as described in the Example above.

[4] = biological target: T3, human liver carboxylesterase (hCE1) (Homo sapiens, UniProt P23141); experiment: biochemical; assay type: biochemical
T3 sequence (P23141 18-567): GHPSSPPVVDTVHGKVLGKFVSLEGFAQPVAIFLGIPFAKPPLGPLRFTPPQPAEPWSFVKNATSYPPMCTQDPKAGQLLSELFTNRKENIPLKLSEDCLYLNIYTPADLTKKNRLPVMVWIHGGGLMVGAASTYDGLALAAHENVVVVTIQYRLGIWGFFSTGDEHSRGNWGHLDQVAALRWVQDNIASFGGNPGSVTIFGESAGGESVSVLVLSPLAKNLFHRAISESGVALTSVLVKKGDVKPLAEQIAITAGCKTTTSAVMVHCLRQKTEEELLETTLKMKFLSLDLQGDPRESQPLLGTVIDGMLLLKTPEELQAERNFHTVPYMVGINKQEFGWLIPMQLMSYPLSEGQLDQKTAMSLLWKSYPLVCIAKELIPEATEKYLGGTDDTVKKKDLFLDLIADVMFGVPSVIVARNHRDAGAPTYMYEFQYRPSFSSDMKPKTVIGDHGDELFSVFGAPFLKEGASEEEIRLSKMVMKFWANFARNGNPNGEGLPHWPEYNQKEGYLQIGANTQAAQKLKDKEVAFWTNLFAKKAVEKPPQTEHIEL

[5] = biological target: T4, rabbit liver carboxylesterase (rCE) (Oryctolagus cuniculus, UniProt P12337); experiment: biochemical; assay type: biochemical
T4 sequence (P12337 19-565): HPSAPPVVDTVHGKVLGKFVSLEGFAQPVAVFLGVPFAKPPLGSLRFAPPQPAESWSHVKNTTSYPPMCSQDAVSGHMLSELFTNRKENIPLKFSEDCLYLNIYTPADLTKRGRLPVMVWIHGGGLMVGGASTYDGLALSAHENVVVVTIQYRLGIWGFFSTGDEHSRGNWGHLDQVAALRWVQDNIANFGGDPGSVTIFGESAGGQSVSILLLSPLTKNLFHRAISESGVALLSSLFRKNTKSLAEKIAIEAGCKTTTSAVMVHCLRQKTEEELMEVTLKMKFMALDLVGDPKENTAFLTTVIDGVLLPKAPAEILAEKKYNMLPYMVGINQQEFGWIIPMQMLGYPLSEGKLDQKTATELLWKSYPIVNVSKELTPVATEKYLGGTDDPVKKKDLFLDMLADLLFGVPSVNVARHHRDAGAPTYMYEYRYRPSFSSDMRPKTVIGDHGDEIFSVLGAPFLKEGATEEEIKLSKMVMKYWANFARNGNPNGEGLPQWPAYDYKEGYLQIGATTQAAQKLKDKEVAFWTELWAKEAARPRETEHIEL

[6] = biological target: T5, human intestinal carboxylesterase in U373MGhiCE cells (Homo sapiens, UniProt O00748); experiment: Inhibition of intracellular carboxylesterase in U373MGhiCE cells; assay type: cell-based
T5 construct: expressed in transfected cells; host or cells: U373MG human glioma cells (U373MGhiCE)
T5 sequence (O00748 27-559): T1 sequence (O00748 27-559)
Method: To monitor the ability of the compounds to cross the cell membrane and inhibit carboxylesterase activity intracellularly, an assay using human tumor cells expressing hiCE was devised. U373MGhiCE (a human glioma cell line transfected with a plasmid expressing hiCE) were plated in T25 flasks and allowed to grow to confluency (approximately 2-5×10^5 cells). Inhibitors were then added at a final concentration of […], and incubation allowed to continue for 1 hour. At this time, the cells were washed extensively with 5 ml of complete media and 2×5 ml of Hanks balanced salt solution, and cell extracts were prepared. Carboxylesterase activity was then determined using o-NPA as a substrate.
Table 8 sets forth the level of intracellular enzyme inhibition following incubation of human glioblastoma tumor cells expressing human intestinal carboxylesterase with 10 μM of each compound identified in Table 3.

[7] = butyrylthiocholine as substrate, Table 6, read-out: hBuChE Ki
[8] = o-NPA as substrate, Table 6, read-out: hCE1 Ki ± SE
[9] = o-NPA as substrate, Table 6, read-out: rCE Ki ± SE
[10] = o-NPA as substrate, Table 6, read-out: hiCE Ki ± SE
[11] = acetylthiocholine as substrate, Table 6, read-out: hAcChE Ki
[12] = o-NPA as substrate, Table 5, read-out: Ki hiCE
[13] = acetylthiocholine substrate, Table 5, read-out: Ki hAcChE
[14] = o-NPA as substrate, Table 5, read-out: Ki hCE1

Row | SMILES | Ki [2, 7] [µM] | Ki [3] [µM] | Ki [4, 8] [µM] | Ki [5, 9] [µM] | Ki [2] [µM] | Ki [3, 11] [µM] | further results
1 | O=C(C(=O)c1ccc(Br)c([N+](=O)[O-])c1)c1ccc(Br)c([N+](=O)[O-])c1 [Compound 4, 1,2-bis(4-bromo-3-nitrophenyl)ethane-1,2-dione] | > 100 | > 100 | > 100 | 0.0087 ± 0.0013 | – | – | Ki [1]: > 100 µM
2 | COc1ccc(C(=O)C(=O)c2ccccc2Cl)cc1OC [Compound 8, 1-(2-chlorophenyl)-2-(3,4-dimethoxyphenyl)ethane-1,2-dione] | – | – | 3.3 | 0.036 ± 0.012 | > 100 | – | –
3 | O=C(C(=O)c1cc(Br)ccc1O)c1cc(Br)ccc1O [Compound 9, 1,2-bis(5-bromo-2-hydroxyphenyl)ethane-1,2-dione] | > 100 | > 100 | – | 0.0535 ± 0.0094 | – | – | Ki [4]: > 100 µM
4 | O=C(C(=O)c1ccc(O)cc1O)c1ccc(O)cc1O [Compound 10, 1,2-bis(2,4-dihydroxyphenyl)ethane-1,2-dione] | – | – | > 100 | > 100 | > 100 | > 100 | Ki [1, 10]: 1.73 µM
5 | O=C(C(=O)c1ccc([N+](=O)[O-])cc1[N+](=O)[O-])c1ccccc1 [Compound 11, 1-(2,4-dinitrophenyl)-2-phenylethane-1,2-dione] | > 100 | > 100 | > 100 | 0.52 ± 0.031 | – | – | –
6 | O=C(C(=O)c1c(Cl)c(Cl)c(Cl)c(Cl)c1Cl)c1c(F)c(F)c(F)c(F)c1F [Compound 12, 1-(pentachlorophenyl)-2-(pentafluorophenyl)ethane-1,2-dione] | > 100 | > 100 | – | 0.823 ± 0.215 | – | – | Ki ([4]; read-out: hCE1 Ki ± SE): 1.69 µM
7 | CN(C)c1ccc(C(=O)C(=O)c2ccc(N(C)C)cc2)cc1 [Compound 13, 1,2-bis[4(dimethylamino)phenyl]ethane-1,2-dione] | > 100 | – | > 100 | 2.4 | – | > 100 | Ki [1, 10]: > 100 µM
8 | O=C(C(=O)c1ccc(Br)cc1)c1ccc(Br)cc1 [Compound 15, 1,2-bis(4-bromophenyl)ethane-1,2-dione] | – | – | > 100 | 0.0041 ± 0.0005 | > 100 | > 100 | –
9 | O=C(C(=O)c1ccc(Cl)cc1)c1ccc(Cl)cc1 [Compound 18, 1,2-bis(4-chlorophenyl)ethane-1,2-dione] | – | – | > 100 | 0.0141 ± 0.0025 | > 100 | > 100 | –
10 | COc1ccc(C(=O)C(=O)c2ccc(OC)cc2)cc1 [Compound 21, 1,2-bis(4-methoxyphenyl)ethane-1,2-dione] | – | – | 3.41 | 0.58 ± 0.157 | > 100 | > 100 | –
11 | O=C1C=Cc2ccccc2C1=O [Compound 29, Naphthalene-1,2-dione] | – | – | – | – | – | – | inhibition of hiCE [1]: inhibition; inhibition of hAcChE [3]: inhibited; inhibition of hCE1 [4]: inhibition; inhibition of rCE [5]: inhibition
12 | O=C(C(=O)c1ccccc1Cl)c1ccccc1Cl [Compound 30, 1,2-bis(2-chlorophenyl)ethane-1,2-dione] | > 100 | > 100 | – | 0.22 ± 0.037 | – | – | Ki ([4]; read-out: hCE1 Ki ± SE): 1.65 µM
13 | O=C(C(=O)c1ccc(Cl)cc1)c1ccccc1 [Compound 31, 1-(4-chlorophenyl)-2-phenylethane-1,2-dione] | – | – | 0.0474 ± 0.0068 | 0.0239 ± 0.0029 | > 100 | > 100 | –
14 | Cc1ccc(C(=O)C(=O)c2ccccc2)cc1 [Compound 32, 1-(4-methylphenyl)-2-phenylethane-1,2-dione] | > 100 | – | 0.125 ± 0.015 | 0.119 ± 0.02 | – | > 100 | –
15 | COc1cccc(C(=O)C(=O)c2cccc(OC)c2)c1 [Compound 33, 1,2-bis(3-methoxyphenyl)ethane-1,2-dione] | – | – | 1.54 | 0.0721 ± 0.0091 | > 100 | – | –
16 | O=C(C(=O)c1cccc([N+](=O)[O-])c1)c1cccc([N+](=O)[O-])c1 [Compound 34, 1,2-bis(3-nitrophenyl)ethane-1,2-dione] | > 100 | > 100 | 18.1 | – | – | – | Ki ([5]; read-out: rCE Ki ± SE): 0.267 ± 0.03 µM
17 | O=C(C(=O)c1ccc(O)cc1)c1ccc(O)cc1 [Compound 35, 1,2-bis(4-hydroxyphenyl)ethane-1,2-dione] | – | – | > 100 | > 100 | > 100 | > 100 | Ki [1, 10]: 1.2 µM
18 | O=C(C(=O)c1ccc(O)c([N+](=O)[O-])c1)c1ccc(O)c([N+](=O)[O-])c1 [Compound 36, 1,2-bis(4-hydroxy-3-nitrophenyl)ethane-1,2-dione] | > 100 | > 100 | – | – | – | – | Ki [1]: > 100 µM; Ki [5]: > 100 µM
19 | COc1ccc(C(=O)C(=O)c2ccc(OC)c([N+](=O)[O-])c2)cc1[N+](=O)[O-] [Compound 37, 1,2-bis(4-methoxy-3-nitrophenyl)ethane-1,2-dione] | > 100 | > 100 | – | – | – | – | Ki [1]: > 100 µM; Ki [4]: > 100 µM
20 | O=C(C(=O)c1ccc(C(=O)C(=O)c2ccccc2)cc1)c1ccccc1 [Compound 38, 1-{4-[oxo(phenyl)acetyl]phenyl}-2-phenylethane-1,2-dione] | – | – | – | 0.0061 ± 0.0006 | – | > 100 | –
21 | COc1cc(OC)c(NC(=O)c2cc3ccccc3cc2O)cc1Cl [Compound 42, N-(5-chloro-2,4-dimethoxyphenyl)-3-hydroxy-2-naphthamide] | – | – | – | – | – | – | Ki [1, 12]: 0.159 µM; Ki [3, 13]: > 100 µM; inhibition at 10 µM [6]: 0%; Ki [4, 14]: > 100 µM
22 | Cc1cccc(C)c1NC(=O)Nc1ccc([N+](=O)[O-])cc1 [Compound 54, N-(2,6-dimethylphenyl)-N′-(4-nitrophenyl)urea] | – | – | – | – | – | – | Ki [1, 12]: 0.32 µM; Ki [3, 13]: > 100 µM; inhibition at 10 µM [6]: 0%; Ki [4, 14]: > 100 µM
23 | Cc1cc([N+](=O)[O-])ccc1NC(=O)Nc1cccc(F)c1 [Compound 55, N-(3-fluorophenyl)-N′-(2-methyl-4-nitrophenyl)urea] | – | – | – | – | – | – | Ki [1, 12]: 1.28 µM; Ki [3, 13]: > 100 µM; Ki [4, 14]: > 100 µM
24 | Cc1cc([N+](=O)[O-])ccc1NC(=O)Nc1ccccc1 [Compound 56, N-(2-methyl-4-nitrophenyl)-N′-phenylurea] | – | – | – | – | – | – | Ki [1, 12]: 1.52 µM; Ki [3, 13]: > 100 µM; inhibition at 10 µM [6]: 0%; Ki [4, 14]: > 100 µM

— patent US7973034B2, “Amide, aryl sulfonamide, aryl urea, and α,β-diketone derived carboxylesterase inhibitors, and their methods of use” (priority 2003, dated 2011)
